From ChEMBL document CHEMBL1156383, “Isolation and biological evaluation of filiformin, plakortide F, and plakortone G from the Caribbean sponge Plakortis sp” (J Nat Prod, 2001) come the findings set out here.

The test system of assay [1] is THP-1. The assay can be described thus: Immunostimulatory activity in human THP1 cells assessed as LPS-induced NF-kappaB activation at =< 50 ug/mL by luciferase reporter gene assay. It is filed as functional, cell-based.
Assay [2] concerns Plasmodium berghei. The assay can be described thus: Antimalarial activity as parasitaemia against Plasmodium berghei ANKA infected Swiss albino mice (Mus musculus) at 100 uM/kg intraperitoneal dose after 3 days. It is filed as functional.
Assay [3] relates to Plasmodium falciparum. The assay can be described thus: Antimalarial activity against Plasmodium falciparum D6. It is filed as functional, organism-based.
In assay [4] the test system is Toxoplasma gondii. The assay can be described thus: Antiparasitic activity against Toxoplasma gondii RH infected in mouse L929 cells assessed as [3H]uracil incorporation at 1 uM after 72 hrs by scintillation counting. The format is functional.
Assay [5] has as its system Hepatitis B virus. The assay can be described thus: Antiviral activity against Hepatitis B virus cell culture assay. The format is functional, organism-based.
The test system of assay [6] is Candida albicans. The assay can be described thus: Antifungal activity against Candida albicans. The format is functional, organism-based.
The test system of assay [7] is Mycobacterium intracellulare. The assay can be described thus: Antibacterial activity against Mycobacterium intracellular. The format is functional, organism-based.
The subject of assay [8] is Staphylococcus aureus. The assay can be described thus: Antibacterial activity against Staphylococcus aureus. It is filed as functional, organism-based.
The subject of assay [9] is Plasmodium berghei. The assay can be described thus: Antimalarial activity against Plasmodium berghei ANKA infected Swiss albino mice (Mus musculus) intraperitoneal dose over 3 days. It is filed as functional, organism-based.
Assay [10] deals with Aspergillus fumigatus. The assay is described as follows: Antifungal activity against Aspergillus fumigatus. The format is functional, organism-based.
Assay [11] deals with Staphylococcus aureus. The assay is described as follows: Antibacterial activity against methicillin-resistant Staphylococcus aureus. The format is functional, organism-based.
In assay [12] the test system is P388. The assay is described as follows: Cytotoxicity against mouse P388 cells by alamar blue assay. The format is functional, cell-based. In general terms: Alamar Blue is a resazurin reagent that responds to reducing activity.
Assay [13] concerns Mycobacterium tuberculosis. The assay can be described thus: Antitubercular activity against Mycobacterium tuberculosis at 6.25 ug/mL. It is filed as functional.
For assay [14], the system named is Pseudomonas aeruginosa. The assay can be described thus: Antibacterial activity against Pseudomonas aeruginosa. It is filed as functional, organism-based.
The subject of assay [15] is HT-29. The assay is described as follows: Cytotoxicity against human HT-29 cells by alamar blue assay. It is filed as functional, cell-based.
The subject of assay [16] is Plasmodium berghei. The assay is described as follows: Antimalarial activity as increased survival against Plasmodium berghei ANKA infected Swiss albino mice (Mus musculus) at 100 uM/kg intraperitoneal dose. It is filed as functional, organism-based.
Assay [17] relates to Cryptococcus neoformans. The assay is described as follows: Antifungal activity against Cryptococcus neoformans. The format is functional, organism-based.
Assay [18] has as its system SK-MEL-28. The assay can be described thus: Cytotoxicity against human SK-MEL-28 cells by alamar blue assay. The format is functional, cell-based.
Assay [19] relates to Plasmodium falciparum. The assay can be described thus: Antimalarial activity against chloroquine-resistant Plasmodium falciparum W2. It is filed as functional, organism-based.
For assay [20], the system named is A549. The assay can be described thus: Cytotoxicity against human A549 cells by alamar blue assay. The format is functional, cell-based.
The test system of assay [21] is Human immunodeficiency virus. The assay is described as follows: Antiviral activity against Human immunodeficiency virus. The format is functional, organism-based. The settings on record: Human immunodeficiency virus 1.
Assay [22] deals with Mycobacterium tuberculosis. The assay is described as follows: Antitubercular activity against Mycobacterium tuberculosis. It is filed as functional.

≈ marks a conversion by molar mass, not a printed value. Calls of active or inactive are those of the source. The rule behind the calls is not given here.

Consider `Cc1cc2c(cc1Br)[C@]1(C)CC[C@](C)(CO2)[C@@H]1C`, for which the result in assay [1] was inactive.
In [2], `C[C@@H]1CC[C@H]2[C@@H](C)C(=O)O[C@@H]3O[C@@]4(C)CC[C@@H]1[C@]32OO4` [ARTEMISININ] returned an Activity of 35.9%. In addition, the IC50 (as a rule, the concentration needed to halve the response being measured) in assay [3] turned out to be 0.012 µg/mL (≈ 0.0425 µM).
`O=C1C(O)=C([C@H]2CC[C@H](c3ccc(Cl)cc3)CC2)C(=O)c2ccccc21` [ATOVAQUONE]: in assay [4], the inhibition (as a rule, the drop in the measured response relative to a control, in per cent) at 1 µM was found to be 100%.
On to `CCN(CC)CCCC(C)Nc1ccnc2cc(Cl)ccc12` (stereo not given) [CHLOROQUINE], for which the Activity in assay [2] turned out to be 0.1%.
As for `Nc1ccn([C@@H]2CS[C@H](CO)O2)c(=O)n1` [LAMIVUDINE], the EC50 – broadly, the concentration at which the effect is half-maximal – in assay [5] stood at 0.062 µg/mL (≈ 0.27 µM).
On to `CC/C=C/C(CC)CCC[C@@]1(CC)C[C@H](CC)[C@H](CC(=O)OC)OO1` (stereo not given in full) [PLAKORTIDE F], for which the outcome in [6], in [7], in assay [8], in assay [10], in assay [11] and in [14] was inactive. Moreover, the outcome in assay [2], in assay [16] and in assay [17] was inactive. For the same molecule, the IC50 entry in assay [9] is “Not Active”; in assay [12], 1.25 µg/mL (≈ 3.53 µM); in [15], 1.25 µg/mL (≈ 3.53 µM); in [18], 2.5 µg/mL (≈ 7.05 µM); in assay [3], 0.48 µg/mL (≈ 1.35 µM); in [19] it was 0.39 µg/mL (≈ 1.1 µM). Further, in assay [20], the IC50 was 2.5 µg/mL (≈ 7.05 µM). 6.25 µg/mL produced 29% inhibition in [13]. Further, the 50% effective concentration (EC50) in [5] is over 100 µg/mL; in assay [21] it was 13 µM. In addition, the inhibition at 1 µM in assay [4] is 67%.
`CC/C=C/[C@H](CC)CCC[C@@]1(CC)C=C(CC)C(=O)O1` [PLAKORTONE G]: the result in assay [6], in assay [7], in assay [8], in assay [10], in assay [11] and in [14] was inactive. In addition, the outcome in [17] was inactive. 6.25 µg/mL produced 4% inhibition in assay [13]. In addition, in assay [5], the EC50 is over 100 µg/mL. The IC50 in [15] was over 1 µg/mL; in assay [18], over 10 µg/mL; in [3] it was 4.2 µg/mL (≈ 15.1 µM); in assay [19], over 4.76 µg/mL; in assay [20] it was over 1 µg/mL.
For the molecule `CO[C@H]1/C=C/O[C@@]2(C)Oc3c(C)c(O)c4c(O)c(c(/C=N/N5CCN(C)CC5)c(O)c4c3C2=O)NC(=O)/C(C)=C\C=C\[C@H](C)[C@H](O)[C@@H](C)[C@@H](O)[C@@H](C)[C@H](OC(C)=O)[C@@H]1C` [RIFAMPIN], 0.25 µg/mL (≈ 0.304 µM) was the least that counted as inhibitory in assay [22] (MIC).
Consider `CC/C(=C(\c1ccccc1)c1ccc(OCCN(C)C)cc1)c1ccccc1` [TAMOXIFEN], for which the half-maximal inhibitory concentration (IC50) in [15], in assay [18] and in assay [20] was 1.86 µg/mL (≈ 5.01 µM) in each case.
As for `Cc1cn([C@H]2C[C@H](N=[N+]=[N-])[C@@H](CO)O2)c(=O)[nH]c1=O` [ZIDOVUDINE], the EC50 in assay [21] is 0.004 µM.
